Laboratory results taken from article PMC11374673, “Discovery of isoquinoline sulfonamides as allosteric gyrase inhibitors with activity against fluoroquinolone-resistant bacteria” (Nature Chemistry, 2024).
Values after ≈ are worked out from the molar mass of the structure shown. Read-outs that look alike come from different tables or passages of the source. One block for each compound: values may come before it.

How the values were obtained:
K. pneumoniae ATCC 29665 = test: MIC by broth microdilution; type: cell-based, Klebsiella pneumoniae; settings: read-out: MIC K. pneumoniae ATCC 29665
Method: (§1) MIC was determined by broth microdilution. Single-colony cultures were grown to exponential phase (OD600 of 0.5) aerobically at 37 °C. In case of strains from the Keio collection, 50 µg ml^−1 kanamycin was supplemented to the media to ascertain a homogeneous population. The bacterial suspensions were diluted 100-fold in CAMHB and 50 µl was added to a twofold serial dilution series of test compounds (50 µl per well) in polypropylene 96-well microtitre plates to reach a volume of 100 µl. The plates were sealed with breathable membranes and incubated overnight at 37 °C with constant shaking (600 r.p.m.).

E. coli W3110 = test: MIC by broth microdilution; type: cell-based, Escherichia coli
Method: as §1

E. coli BW25113 = test: Bacterial cytological profiling (BCP); type: cell-based, Escherichia coli; settings: BCP; for DIC angularity: 2 h, AMP 12.5, RIF 12.5, TET 6.25, CIP 0.0625, LEI-801 6.25, LEI-800 6.25 µM, average ± SD of 3 replicates; for DAPI intensity / SYTOX Green intensity: standardized to DMSO control
Method: Overnight E. coli BW25113 cultures were diluted 1:100 in fresh LB medium in a 100 ml Erlenmeyer flask and incubated at 120 r.p.m. and 37 °C. When OD600 >0.2, the cultures were diluted to OD600 of 0.1 in fresh LB medium with a final volume of 200 µl in a 2 ml Eppendorf tube. The appropriate antibiotic or control treatment was applied and the samples were incubated at 200 r.p.m. and 30 °C for 2 h. Subsequently, 4,6-diamidino-2-phenylindole (DAPI) (2 µg ml^−1), FM4-64 (2 µg ml^−1) and SYTOX Green (0.5 µM) were added to reach the desired concentration and the samples were incubated a further 10 min. The samples were then centrifuged at 3,300g for 50 s and the pellets resuspended in half the original volume. From this suspension, 5 µl was spotted onto a 2.0% agarose pad for microscopy.
Microscopy was performed on a Zeiss Axio Observer Z1/7 inverted microscope.
For the qualitative assessment of the bacterial morphology, the acquired images were first pre-processed in ImageJ (v1.53m)[47]. Thereafter the brightness and contrast were adjusted to allow the clearest visual inspection of the particular phenotype. For the quantitative BCP, DIC images were first pre-processed and then a random forest classifier was trained with Illastik (v1.3.3)[48] to generate a segmented image. These binary masks were then combined together with the original DIC image and processed with the ImageJ plugin MicrobeJ (v 5.13l)[49]. MicrobeJ generated cell outlines and performed measurements on cell shape accordingly. The recorded cell outlines produced by MicrobeJ were exported and used as a guide to characterize the DNA shape within each bacterium using a custom-made ImageJ macro (Appendix II). DAPI and SYTOX Green intensity were measured on raw images in a similar manner. Then, by hand, polygons were drawn that excluded bacteria to determine background intensity. After background correction the intensity was standardized to the DMSO control within the same biological replicate. For PCA, the BCP assay was executed for three independently biological replicates. During each experiment, images were acquired until 24 or more bacteria in total had been observed. Following feature extraction for each replicate, principal component analysis was performed using GraphPad Prism (v9.0.0) using multiple variable analysis with standardized data. Principal components (PCs) were selected based on the per cent of total explained variance (minimum 80%).

[1] = Klebsiella pneumoniae, ATCC29665, broth microdilution
[2] = Escherichia coli, W3110, WT, broth microdilution, read-out: MIC E. coli W3110
[3] = WT, broth microdilution, read-out: MIC E. coli W3110
[4] = Escherichia coli, W3110, follow-up of the 12 library hits, read-out: MIC E. coli

MIC (K. pneumoniae ATCC 29665; [1]): > 50 µM | MIC (K. pneumoniae ATCC 29665; broth microdilution): >50 µM | MIC (E. coli W3110; [2]): > 50 µM | MIC (E. coli W3110; [3]): >50 µM
SMILES: O=S(=O)(NCCNCc1ccc(-c2ccc3c(c2)OCCO3)cc1)c1cccc2cnccc12 [Compound 78]

MIC (E. coli W3110; [4]): > 50 µM
SMILES: O=S(=O)(NCCNC/C=C/c1ccccc1-c1ccc2c(c1)OCO2)c1cccc2cnccc12 [Compound 97i]

MIC (E. coli W3110; [4]): > 50 µM
SMILES: O=S(=O)(NCCNC/C=C/c1ccc(-c2cccnc2)cc1)c1ccc2[nH]ncc2c1 [SG170]

SMILES: CO[C@H]1/C=C/O[C@@]2(C)Oc3c(C)c(O)c4c(O)c(c(/C=N/N5CCN(C)CC5)c(O)c4c3C2=O)NC(=O)/C(C)=C\C=C\[C@H](C)[C@H](O)[C@@H](C)[C@@H](O)[C@@H](C)[C@H](OC(C)=O)[C@@H]1C [RIF, rifampicin, reference compound]
DAPI circularity (E. coli BW25113): 0.637 ± 0.019 | DAPI nucleoid area (E. coli BW25113): 4.992 ± 0.606 | DAPI nucleoids (E. coli BW25113): 1.120 ± 0.069 | DAPI perimeter (E. coli BW25113): 9.927 ± 0.636 | DAPI roundness (E. coli BW25113): 0.408 ± 0.029 | DAPI solidity (E. coli BW25113): 0.918 ± 0.003 | DAPI total area (E. coli BW25113): 5.402 ± 0.548 | DIC area (E. coli BW25113): 5.883 ± 0.716 | DIC circularity (E. coli BW25113): 0.642 ± 0.053 | DIC curvature (E. coli BW25113): 0.092 ± 0.018 | DIC feret (E. coli BW25113): 4.608 ± 0.076 | DIC length (E. coli BW25113): 4.635 ± 0.073 | DIC roundness (E. coli BW25113): 0.370 ± 0.047 | DIC sinuosity (E. coli BW25113): 1.017 ± 0.003 | DIC solidity (E. coli BW25113): 0.956 ± 0.014 | DIC width (E. coli BW25113): 1.327 ± 0.161 | Decondensation (E. coli BW25113): 0.922 ± 0.075 | DIC angularity (E. coli BW25113): 0.101 ± 0.016 | DAPI intensity (E. coli BW25113): 0.704 ± 0.260 | SYTOX Green intensity (E. coli BW25113): 2.120 ± 0.434

MIC (E. coli W3110; [4]): > 50 µM
SMILES: Nc1ccc2c(N3CCC(COc4ccccn4)CC3)ncnc2n1 [AJ358]

MIC (K. pneumoniae ATCC 29665; [1]): 12.5 µM (≈ 5.67 µg/mL) | MIC (E. coli W3110; [2]): 12.5 µM (≈ 5.67 µg/mL)
SMILES: O=S(=O)(NCCNCc1ccc(-c2ccc(F)cc2)c(F)c1)c1cccc2cnccc12 [Compound 90]

MIC (E. coli W3110; [4]): > 50 µM
SMILES: O=S(=O)(NCCNC/C=C/c1ccc(-c2cccnc2)cc1)c1ccc2cn[nH]c2c1 [SG171]

MIC (K. pneumoniae ATCC 29665; [1]): > 50 µM | MIC (K. pneumoniae ATCC 29665; broth microdilution): >50 µM | MIC (E. coli W3110; [2]): 25 µM (≈ 12.2 µg/mL)
SMILES: O=S(=O)(NCCNCc1ccc(-c2ccc(Cl)c(Cl)c2)cc1)c1cccc2cnccc12 [Compound 74]

MIC (K. pneumoniae ATCC 29665; [1]): > 50 µM | MIC (K. pneumoniae ATCC 29665; broth microdilution): >50 µM | MIC (E. coli W3110; [2]): 25 µM (≈ 12.1 µg/mL)
SMILES: O=S(=O)(NCCNCc1ccc(-c2cccc(C(F)(F)F)c2)cc1)c1cccc2cnccc12 [Compound 69]

MIC (K. pneumoniae ATCC 29665; [1]): > 50 µM | MIC (K. pneumoniae ATCC 29665; broth microdilution): >50 µM | MIC (E. coli W3110; [2]): > 50 µM | MIC (E. coli W3110; [3]): >50 µM
SMILES: O=S(=O)(NCCNCc1ccc(-c2ccc(F)cc2)nc1)c1cccc2cnccc12 [Compound 82]

SMILES: CC1(C)S[C@@H]2[C@H](NC(=O)[C@H](N)c3ccccc3)C(=O)N2[C@H]1C(=O)O [AMP, ampicillin, reference compound]
DAPI circularity (E. coli BW25113): 0.173 ± 0.043 | DAPI nucleoid area (E. coli BW25113): 9.445 ± 2.853 | DAPI nucleoids (E. coli BW25113): 2.583 ± 0.910 | DAPI perimeter (E. coli BW25113): 30.886 ± 6.792 | DAPI roundness (E. coli BW25113): 0.108 ± 0.020 | DAPI solidity (E. coli BW25113): 0.603 ± 0.036 | DAPI total area (E. coli BW25113): 19.710 ± 4.300 | DIC area (E. coli BW25113): 31.597 ± 3.284 | DIC circularity (E. coli BW25113): 0.144 ± 0.015 | DIC curvature (E. coli BW25113): 0.024 ± 0.004 | DIC feret (E. coli BW25113): 26.883 ± 3.012 | DIC length (E. coli BW25113): 27.774 ± 3.16 | DIC perimeter (E. coli BW25113): 56.849 ± 6.297 | DIC roundness (E. coli BW25113): 0.066 ± 0.008 | DIC sinuosity (E. coli BW25113): 1.033 ± 0.002 | DIC solidity (E. coli BW25113): 0.538 ± 0.044 | DIC width (E. coli BW25113): 1.143 ± 0.051 | Decondensation (E. coli BW25113): 0.619 ± 0.078 | DIC angularity (E. coli BW25113): 0.069 ± 0.009 | DAPI intensity (E. coli BW25113): 1.490 ± 0.410 | SYTOX Green intensity (E. coli BW25113): 1.901 ± 0.246

MIC (E. coli W3110; [4]): > 50 µM
SMILES: O=S(=O)(NCCNCCCc1ccc(-c2cccnc2)cc1)c1cccc2cnccc12 [SG145]

MIC (K. pneumoniae ATCC 29665; [1]): > 50 µM | MIC (K. pneumoniae ATCC 29665; broth microdilution): >50 µM | MIC (E. coli W3110; [2]): > 50 µM | MIC (E. coli W3110; [3]): >50 µM
SMILES: CNC(=O)c1ccc(S(=O)(=O)NCCNCc2ccc(-c3cccnc3)cc2)cn1 [Compound 51]

MIC (K. pneumoniae ATCC 29665; [1]): > 50 µM | MIC (K. pneumoniae ATCC 29665; broth microdilution): >50 µM | MIC (E. coli W3110; [2]): > 50 µM | MIC (E. coli W3110; [3]): >50 µM
SMILES: O=S(=O)(NCCNCc1ccc(-c2ccc3ccccc3c2)cc1)c1cccc2cnccc12 [Compound 76]

MIC (K. pneumoniae ATCC 29665; [1]): > 50 µM | MIC (K. pneumoniae ATCC 29665; broth microdilution): >50 µM | MIC (E. coli W3110; [2]): > 50 µM | MIC (E. coli W3110; [3]): >50 µM
SMILES: O=S(=O)(NCCNCc1ccc(-c2cc(Cl)cc(Cl)c2)cc1)c1cccc2cnccc12 [Compound 75]

MIC (E. coli W3110; [4]): > 50 µM
SMILES: Nc1ccccc1S(=O)(=O)NCCNC/C=C/c1ccc(-c2cccnc2)cc1 [BB064]

SMILES: CN(C)CCCN1c2ccccc2Sc2ccc(Cl)cc21 [MB053]
MIC (E. coli W3110; Escherichia coli, W3110, read-out: MIC E. coli): > 50 µM

MIC (E. coli W3110; [4]): > 50 µM
SMILES: O=S(=O)(NCCNC/C=C/c1ccc(-c2cccnc2)cc1)c1cccc2[nH]ncc12 [SG176]
